For one test, the target named is T1, estrone sulfatase (Homo sapiens, UniProt P08842).
T1 construct: Estrone Sulfatase Assay with Intact Cells; host or cells: MCF-7
T1 sequence (P08842 22-583): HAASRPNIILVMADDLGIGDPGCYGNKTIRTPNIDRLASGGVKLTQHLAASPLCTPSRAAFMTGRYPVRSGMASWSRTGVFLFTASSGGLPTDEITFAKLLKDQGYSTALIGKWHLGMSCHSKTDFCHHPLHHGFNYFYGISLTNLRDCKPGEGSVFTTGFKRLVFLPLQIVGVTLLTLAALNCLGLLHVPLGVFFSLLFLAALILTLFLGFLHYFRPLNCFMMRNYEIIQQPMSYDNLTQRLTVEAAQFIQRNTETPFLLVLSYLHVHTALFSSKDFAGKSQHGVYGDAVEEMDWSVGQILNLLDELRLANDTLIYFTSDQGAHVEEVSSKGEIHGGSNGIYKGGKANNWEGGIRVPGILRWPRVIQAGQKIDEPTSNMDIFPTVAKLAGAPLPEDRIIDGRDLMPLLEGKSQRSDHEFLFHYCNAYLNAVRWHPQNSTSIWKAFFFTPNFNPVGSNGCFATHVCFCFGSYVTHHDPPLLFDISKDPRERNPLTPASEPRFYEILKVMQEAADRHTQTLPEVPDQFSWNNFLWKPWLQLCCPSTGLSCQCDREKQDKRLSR
Put plainly: Estrone sulfatase assay with intact MCF-7 cells. The format is cell-based. The conditions noted are these: concentration giving 50 % inhibition, 24 h, 3H-estrone sulfate substrate. From the text: Test for the Effects of Inhibitors on Estrone Sulfatase Activity in MCF-7 Cells:
Reagents: MCF-7 human breast cancer cells were supplied by the American Type Culture Collection, Rockville, Md. Eagle's minimum essential medium (MEM) and fetal calf serum (FCS) were purchased from Sigma Chemical Company, St. Louis, Mo. [4-^14 C] Estrone, [6,7-^3 H] estradiol and [6,7-^3 H(N)] estrone sulfate were obtained from New England Nuclear Research Products, Boston, Mass.
Estrone Sulfatase Assay with Intact Cells. The procedure of Duncan et al., Cancer Res. 53:298-303 (1993) was followed. MCF-7 cells were seeded in 60×15 mm culture dishes at 1×10^5 cells/dish and maintained in 4.0 mL of MEM containing 2 mM of glutamine and 5% of FCS. The cells were incubated at 37° C. in a 5% CO2 /95% air atmosphere and 100% humidity, with the medium changed every third day. When the cells reach 80% confluency, the intact monolayers were washed once with Earl's balanced salt solution and incubated in 4.0 mL of serum-free MEM containing the substrate (^3 H-estrone sulfate, 7 pmol, 9×10^5 dpm) and inhibitor dissolved in ethanol or ethanol alone. The final ethanol concentration was always be below 1%. The incubation continued for 24 h. 2.0 mL of medium was transferred into separate tubes containing 7×10^3 dpm of ^14 C-estrone. The mixture was vortexed vigorously for 60 s with 5 mL of toluene. After phase separation, 2.0 mL of the organic phase was transferred into a counting vial for scintillation counting. The amount of estrone sulfate hydrolyzed was calculated on the basis of the ^3 H counts obtained, with the added ^14 C-estrone used to correct for recovery through the extraction procedure.
The cells remaining in each culture dish were washed with saline once and then scraped with 1.0 mL of 0.5N NaOH into 10×75 mm tubes. The cell pellets in each tube were incubated at 50° C. for 20 min. to ensure that digestion was complete and that all proteins became soluble. An aliquot was then taken for protein determination by Lowry's method (Lowry et al., J. Biol. Chem. 193:265-275 (1951)).
The amount of estrone sulfate hydrolyzed with the inhibitor relative to that without the inhibitor was evaluated to give the percentage of inhibition.

The subject of test [1] is MCF-7 human breast carcinoma xenografts. Put plainly: Tumor growth inhibition assay, MCF-7 human breast carcinoma xenografts in athymic mice. In kind it is in vivo, human MCF-7 xenografts in female BALB/c athymic mice. The note with it: i.p. 1.0 mg/mouse/day for 5 weeks, mean ± S.E. The text has this: In Vivo Efficacy Studies Using MCF-7 Cells in Nude Mice: For in vivo evaluation, human xenografts were used in nude (athymic) mice, in the context of a solid tumor assay. MCF-7 human breast carcinomas in nude mice were used as the model for evaluating the estrone sulfatase inhibitors. The protocol followed was essentially that of Yue et al., J. Steroid Biochem. 44:671-673 (1993). Because MCF-7 cells are known to require supplementation with estradiol to sustain progressive growth in athymic nude mice (Soule et al., Cancer Lett. 10:177-189 (1980)), estrone sulfate was used for supplemental estrogen in the model studies. The enzyme inhibitors were administered by intravenous injection, oral gavage, and intraperitoneal administration, and comparative efficacy of the various compounds were evaluated using these different routes. Female BALB/c athymic mice 4-6 weeks of age were supplied by Charles River Breeding Laboratories, Boston, Mass. MCF-7 cells for the in vitro cell growth inhibition assay were obtained from the American Type Culture Collection, Rockville, Md., and cultured under the same conditions as described above for the sulfatase assay. Tumor Growth Inhibition Assay (see […] et al. (1990), supra, Yue et al., supra, and Noel et al., Biochem. Pharmacol. 43:1263-1267 (1992): The athymic mice were housed five per cage in controlled conditions of light and humidity and received food and water ad libitum throughout the entire experiment. The mice were quarantined for three working days before use in experiments. Prior to the initiation of the antitumor experiments, the mice were housed for seven days to familiarize them with the experimental environment. Temperature was maintained at 72±5° F., with relative humidity at 35-70% and a 12-h light/dark cycle. The mice were fed certified Purina rodent chow and drinking water ad libitum. The source water was recirculated, deionized, UV-treated, and filtered (5-μm filter). At the beginning of the experiment, all but five of the mice underwent oophorectomies to eliminate the endogenous level of estrogen. After all animals recovered from surgery, all mice in the study received 5 μmol of estrone sulfate daily via gavage or subcutaneous (sc) injection. The dosing of estrone sulfate was carried out throughout the entire experiment. Seven days after the animals began treatment with estrone sulfate, each mouse was be injected sc twice (once in each flank) with 2.5×10^6 MCF-7 cells suspended in 0.1 mL of serum-free tissue culture medium to induce tumor growth. The growth rate was determined by measuring the tumors with calipers weekly. Tumor volumes were calculated according to the formula 4/3πr1^2,r2, where r1 and r2 represent the tumor radii. When the average tumor volume per mouse reached approximately 200 mm^3, animals began to receive various doses of estrone sulfatase inhibitors dissolved in 0.1 mL of phosphate buffered saline (PBS). Dosing was by oral gavage, intravenous injection, and intraperitoneal injection; daily dosing with estrone sulfatase inhibitors was continued throughout the remainder of the experiment. The estrone sulfatase inhibitors not soluble in aqueous solutions were dissolved in EtOH first and diluted with PBS to obtain the appropriate concentrations of inhibitor but keeping the concentration of EtOH below 1%. For each test compound, the mice were divided into several groups with five animals in each group. These groups were as follows: intact control group receiving PBS alone; oophorectomized control group receiving PBS alone; and oophorectomized treatment groups receiving various doses of estrone sulfatase inhibitors. […] The change in tumor volume in the treatment groups relative to that in the oophorectomized control group gave the percent inhibition of a given inhibitor.

As to `CC(=O)O[C@H]1CC[C@H]2[C@@H]3CCc4cc5c(cc4[C@H]3CC[C@]12C)C=NS(=O)(=O)O5` [Compound 4, 17β-acetoxyestra-1,3,5(10)-trieno-[3,2,e]-1',2',3'-oxathiazine-2',2'-dioxide], the half-maximal inhibitory concentration (IC50) against estrone sulfatase worked out at 12 nM. Consider `C[C@]12CC[C@@H]3c4cc5c(cc4CC[C@H]3[C@@H]1CCC2=O)OS(=O)(=O)N=C5` [Compound 6, Estra-1,3,5(10)-trien-17-ono-[3,2,e]-1',2',3'-oxathiazine-2',2'-dioxide], for which half-maximal inhibition against estrone sulfatase (IC50) required 9.3 nM. Moreover, the “Tumor Volume, week 0” value in test [1] (week 0, control 96.5 ± 5.2) came to 133.6 ± 15.9 mm^3. In addition, the “Tumor Volume, week 1” value in test [1] (week 1, control 184.1 ± 26.3) worked out at 185.8 ± 16.5 mm^3. For the same compound, the “Tumor Volume, week 2” value in test [1] (week 2, control 191.2 ± 36.1) is on record as 191.3 ± 25.1 mm^3. Further, the “Tumor Volume, week 3” value in test [1] (week 3, control 232.9 ± 46.4) came out at 181.8 ± 27.8 mm^3. For the same compound, the “Tumor Volume, week 4” value in test [1] (week 4, control 299.5 ± 54.3) is listed as 234.0 ± 50.7 mm^3. The “Tumor Volume, week 5” value in test [1] (week 5, control 349.0 ± 46.2) turned out to be 285.8 ± 47.7 mm^3. At estrone sulfatase, `C[C@]12CC[C@@H]3c4cc5c(cc4CC[C@H]3[C@@H]1CC[C@@H]2O)OS(=O)(=O)N=C5` [Compound 10, 17β-hydroxyestra-1,3,5(10)-trieno-[3,2,e]-1',2',3'-oxathiazine-2',2'-dioxide] came in with an IC50 of 20 nM.

On estrone sulfatase, `C[C@]12CC[C@@H]3c4cc5c(cc4CC[C@H]3[C@@H]1CC[C@@H]2O)OS(=O)(=O)NC5` [Compound 11, 17β-Hydroxyestra-1,3,5(10)-trieno-[3,2,e]-3',4'-dihydro-1',2',3'-oxathiazine-2',2'-dioxide] came in with an IC50 of 820 nM.

Consider `C[C@]12CC[C@@H]3c4ccc5c(c4CC[C@H]3[C@@H]1CCC2=O)C=NS(=O)(=O)O5` [Compound 13, estra-1,3,5(10)-trien-17-ono-[3,4,e]-1',2',3'-oxathiazine-2',2'-dioxide], for which half-maximal inhibition against estrone sulfatase (IC50) required 44 nM. At estrone sulfatase, `C[C@]12CC[C@@H]3c4ccc5c(c4CC[C@H]3[C@@H]1CC[C@@H]2O)CNS(=O)(=O)O5` [Compound 14, 17β-Hydroxyestra-1,3,5(10)-trieno-[3,4,e]-3',4'-dihydro-1',2',3'-oxathiazine-2',2'-dioxide] yielded an IC50 of 15000 nM. The same measure, in the same setting: under `CC[C@H]1CC[C@H]2[C@@H]3CCc4cc5c(cc4[C@H]3CC[C@]12C)C=NS(=O)(=O)O5` [Compound 17, 19-norpregna-1,3,5(10)-trieno-[3,2,e]-1',2',3'-oxathiazine-2',2'-dioxide] stands 50 nM; under `C=C1CC[C@H]2[C@@H]3CCc4cc5c(cc4[C@H]3CC[C@]12C)C=NS(=O)(=O)O5` [Compound 30, 17-methyleneestra-1,3,5(10)-trieno-[3,2,e]-1',2',3'-oxathiazine-2',2'-dioxide], 72 nM. With `C/C=C1/CC[C@H]2[C@@H]3CCc4cc5c(cc4[C@H]3CC[C@]12C)C=NS(=O)(=O)O5` [Compound 31, [17(20)Z]-norpregna-1,3,5(10),17(20)-tetraeno-[3,2,e]-1',2',3'-oxathiazine-2',2'-dioxide], the IC50 at estrone sulfatase worked out at 63 nM. On the same count and under the same terms, for `CC/C=C1/CC[C@H]2[C@@H]3CCc4cc5c(cc4[C@H]3CC[C@]12C)C=NS(=O)(=O)O5` [Compound 32, [17(20)Z]-Propylideneestra-1,3,5(10)-trieno-[3,2,e]-1',2',3'-oxathiazine-2',2'-dioxide] the value was 58 nM. Still for that read-out and setting: under `CCC/C=C1/CC[C@H]2[C@@H]3CCc4cc5c(cc4[C@H]3CC[C@]12C)C=NS(=O)(=O)O5` [Compound 33, [17(20)Z]-19,21-dinorchola-1,3,5(10),17(20)-tetraeno-[3,2,e]-1',2',3'-oxathiazine-2',2'-dioxide] stands 720 nM. On the same count and under the same terms, for `C[C@H]1CC[C@H]2[C@@H]3CCc4cc5c(cc4[C@H]3CC[C@]12C)C=NS(=O)(=O)O5` [Compound 34, 17β-methylestra-1,3,5(10)-trieno-[3,2,e]-1',2',3'-oxathiazine-2',2'-dioxide] the value was 45 nM; for `CCC[C@H]1CC[C@H]2[C@@H]3CCc4cc5c(cc4[C@H]3CC[C@]12C)C=NS(=O)(=O)O5` [Compound 35, 17β-Propylestra-1,3,5(10)-trieno-[3,2,e]-1',2',3'-oxathiazine-2',2'-dioxide], 120 nM; for `CCCC[C@H]1CC[C@H]2[C@@H]3CCc4cc5c(cc4[C@H]3CC[C@]12C)C=NS(=O)(=O)O5` [Compound 36, 17β-19,21-dinorchola-1,3,5(10)-trieno-[3,2,e]-1',2',3'-oxathiazine-2',2'-dioxide], 590 nM. As to `C=C=C1CC[C@H]2[C@@H]3CCc4cc5c(cc4[C@H]3CC[C@]12C)C=NS(=O)(=O)O5` [Compound 40, 19-Norpregna-1,3,5(10),17(20),20-pentaeno-[3,2,e]-1',2',3'-oxathiazine-2',2'-dioxide], half-maximal inhibition on estrone sulfatase (IC50) was put at 74 nM.

As to `CO[C@H]1CC[C@H]2[C@@H]3CCc4cc5c(cc4[C@H]3CC[C@]12C)C=NS(=O)(=O)O5` [Compound 43, 17β-methoxyestra-1,3,5(10)-trieno-[3,2,e]-1',2',3'-oxathiazine-2',2'-dioxide], the IC50 at estrone sulfatase stood at 50 nM.

In general, IC50 refers to the concentration that inhibits the measured activity by half. Low values mean greater potency in that assay, high ones weaker potency in that assay.

These data come from patent US5861388A, “Steroid inhibitors of estrone sulfatase and associated pharmaceutical compositions and methods of use” (SRI International, priority 1997, dated 1999).
